Data reported in patent US11597729B2, “Tropomyosin receptor kinase inhibitor, preparation method therefor and use thereof” (JIANGSU VCARE PHARMATECH CO., LTD., priority 2018, dated 2023).

Tests used:
TrkA = TrkA (Homo sapiens, UniProt P04629); assay: Inhibitory activity test for Trk kinases (γ-33P-ATP isotope test), TrkA; format: biochemical; conditions: 33P-ATP 10 μM, 2 h reaction; read-out: Kinase IC50 TrkA
Protocol: (§1) Inhibitory Activity Test for Trk Kinases
(§2) In this experiment, the γ-^33P-ATP isotope test was used to test the inhibition effect of a compound on kinases TrkA, TrkB and TrkC, and the half maximal inhibitory concentration IC50 of the inhibitory activity of the compound on the enzymes was obtained.
(§3) A compound was dissolved in 100% DMSO to a particular concentration, and then the resulting solution was gradient-diluted by an automatic loading device to different concentrations of the test samples (DMSO dissolving solutions).
(§4) 3.1. The reaction substrate was diluted using the base reaction buffer;
(§5) 3.2. The kinase was added into the substrate solution and mixed gently and uniformly;
(§6) 3.3. The compounds of different concentrations diluted in 100% DMSO were added into the kinase solution using an automatic loading system, and incubated for 20 min at room temperature;
(§7) 3.4. ^33P-ATP (10 μM, 10 μCi/μl) was added at room temperature to initiate the kinase reaction, and the reaction was carried out for 2 h.
(§8) The reaction solution was subjected to an ion exchange filtration system to remove unreacted ATP and the generated ADP ions during the reaction. Then, the radiometric quantity of ^33P isotope in the substrate was detected.
(§9) The kinase activity in the system with the addition of the inhibitors of different concentrations was calculated from the radiometric quantity, to obtain the inhibitory effect of the compounds with different concentrations on the kinase activity. Fitting was performed using graphpad prism to obtain IC50 values of the compounds for inhibition.

TrkC = TrkC (Homo sapiens, UniProt Q16288); assay: Inhibitory activity test for Trk kinases (γ-33P-ATP isotope test), TrkC; format: biochemical; conditions: 33P-ATP 10 μM, 2 h reaction; read-out: Kinase IC50 TrkC
Chain of TrkC (Q16288 32-839, species assumed): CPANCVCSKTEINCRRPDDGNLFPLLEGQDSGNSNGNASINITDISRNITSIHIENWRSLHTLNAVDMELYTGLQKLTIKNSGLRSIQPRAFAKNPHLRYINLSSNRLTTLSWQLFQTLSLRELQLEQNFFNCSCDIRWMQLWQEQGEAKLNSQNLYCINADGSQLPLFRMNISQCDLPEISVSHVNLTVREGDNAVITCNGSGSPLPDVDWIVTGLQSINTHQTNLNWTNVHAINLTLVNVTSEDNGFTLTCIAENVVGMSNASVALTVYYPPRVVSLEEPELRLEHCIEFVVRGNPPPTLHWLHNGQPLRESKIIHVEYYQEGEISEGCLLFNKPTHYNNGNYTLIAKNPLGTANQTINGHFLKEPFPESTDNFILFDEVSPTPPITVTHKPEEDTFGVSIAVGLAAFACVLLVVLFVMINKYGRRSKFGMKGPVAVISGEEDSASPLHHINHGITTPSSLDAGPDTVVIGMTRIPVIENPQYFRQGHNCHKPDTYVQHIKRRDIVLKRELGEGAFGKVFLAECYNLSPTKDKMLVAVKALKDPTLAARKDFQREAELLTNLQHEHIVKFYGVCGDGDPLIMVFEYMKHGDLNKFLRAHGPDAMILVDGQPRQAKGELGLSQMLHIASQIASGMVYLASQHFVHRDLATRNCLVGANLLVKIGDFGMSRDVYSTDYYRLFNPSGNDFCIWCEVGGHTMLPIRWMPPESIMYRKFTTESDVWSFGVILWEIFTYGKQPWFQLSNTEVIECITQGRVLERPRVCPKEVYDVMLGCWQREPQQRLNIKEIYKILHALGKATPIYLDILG
Protocol: as §1, §2, §3, §4, §5, §6, §7, §8, §9

TrkB = TrkB (Homo sapiens, UniProt Q16620); assay: Inhibitory activity test for Trk kinases (γ-33P-ATP isotope test), TrkB; format: biochemical; conditions: 33P-ATP 10 μM, 2 h reaction; read-out: Kinase IC50 TrkB
Chain of TrkB (Q16620 32-822, species assumed): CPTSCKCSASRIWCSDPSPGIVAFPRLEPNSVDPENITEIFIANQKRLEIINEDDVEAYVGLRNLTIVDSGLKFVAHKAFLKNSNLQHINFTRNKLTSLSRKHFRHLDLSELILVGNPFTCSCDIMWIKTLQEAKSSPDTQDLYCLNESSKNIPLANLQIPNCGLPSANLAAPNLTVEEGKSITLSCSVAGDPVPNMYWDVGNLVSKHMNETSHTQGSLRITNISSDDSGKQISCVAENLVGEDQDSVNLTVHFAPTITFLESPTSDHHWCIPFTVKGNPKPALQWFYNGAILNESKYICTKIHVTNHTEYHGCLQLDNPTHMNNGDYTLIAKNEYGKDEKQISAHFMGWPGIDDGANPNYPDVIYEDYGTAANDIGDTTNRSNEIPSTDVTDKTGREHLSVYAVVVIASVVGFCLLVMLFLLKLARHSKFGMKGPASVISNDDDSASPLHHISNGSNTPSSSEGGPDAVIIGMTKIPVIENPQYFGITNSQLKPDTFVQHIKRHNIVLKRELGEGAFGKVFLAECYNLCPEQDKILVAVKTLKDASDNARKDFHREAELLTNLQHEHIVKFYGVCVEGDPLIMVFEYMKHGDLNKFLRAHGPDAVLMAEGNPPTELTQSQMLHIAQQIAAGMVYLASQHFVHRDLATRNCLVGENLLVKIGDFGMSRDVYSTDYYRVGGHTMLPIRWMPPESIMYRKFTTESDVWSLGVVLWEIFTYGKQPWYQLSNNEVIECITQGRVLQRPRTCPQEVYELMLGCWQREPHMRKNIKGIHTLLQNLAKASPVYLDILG
Protocol: as §1, §2, §3, §4, §5, §6, §7, §8, §9

[1] = Metabolic stability in human liver microsomes; format: in vitro ADME; conditions: for Remaining % (60 min) / microsomal CLint at 1 μmol/L: human liver microsomes 0.5 mg/mL, compound 1 μmol/L; for Remaining % (60 min): 37° C.; for Negative control Remaining % (60 min): human liver microsomes, negative control incubation; for half-life at 1 μmol/L: human, liver microsomes; for half-life at 1 μmol/L / microsomal CLint at 1 μmol/L: pH 7.4; for microsomal CLint at 1 μmol/L: read-out: Clint (μL/min/mg protein)
Protocol: Testing on Metabolic Stability of Compounds in Human Liver Microsomes
The total volume of an incubation system was 250 μL, and 50 mmol/L PBS buffer (pH=7.4) was used to prepare incubation solutions of liver microsomes from various species with a protein concentration of 0.5 mg/mL. Before the start of the incubation, 2.5 μL of a 100 μmol/L compound to be tested was mixed with 197.5 μL of the above incubation solution, pre-incubated in a 37° C. water bath for 5 min, and then added with a 50 μL reducing coenzyme II solution (5 mmol/L) that was likewise pre-incubated for 5 min to start the reaction (in the reaction system, the protein content of liver microsomes from various species was 0.5 g/L, and the final concentration of the compound to be tested was 1 μmol/L), incubated in a 37° C. water bath with shaking, and taken out at 0, 5, 15, 30, and 60 min. 600 μL of a methanol solution of mixed positive and negative internal standards with internal standards Terfenadine (positive ion internal standard, 25 ng/mL) and Tolbutamide (negative ion internal standard, 50 ng/mL) was immediately added to terminate the reaction. The incubation solution after termination was shaken for 2 min and centrifuged (4° C., 16000 r/min) for 10 min, and the supernatant was taken for LC-MS/MS detection to quantitatively analyze the remaining amount of the parent drug. (DMSO<0.1%).
The concentration of the compound at 0 min incubation was regarded as 100%, and the concentrations at other incubation time points were converted into the remaining percentages. The natural logarithm of the remaining percentage at each time point was linearly regressed against the incubation time, and the slope k was calculated. According to the formula T1/2=−0.693/k, the in vitro half-life was calculated. Clearance in liver microsomes (CLint (μL/min/mg protein)=Ln (2)*1000/T1/2 (min)/Protein Conc(mg/ml)).
Test data of metabolic stability of the compounds of the present invention in human liver microsomes are listed in detail in table 3: […]

BaF3-tel-NTRK1 = assay: Growth inhibition test, CellTiter-Glo, tel-NTRK1-BaF3 cells; format: cell-based; conditions: 72 hours incubation, read-out: Cell GI50 BaF3-tel-NTRK1
Protocol: (§10) Growth Inhibition Test for Tel-NTRK1-BaF3 and BaF3-LMNA-NTRK1 Cells
(§11) In this experiment, the CellTiter-Glo cell proliferation fluorescence assay was used to test the growth inhibitory effect of a compound on tel-NTRK1-BaF3 and BaF3-LMNA-NTRK1 transgenic cells, and the half maximal growth inhibitory concentration GI50 of the compound on the cells was obtained.
(§12) A compound to be tested was dissolved in DMSO to formulate 10 mM of a mother solution. The mother solution was 3× diluted to 10 mM, 3.333 mM, 1.111 mM, 0.370 mM, 0.123 mM, 0.041 mM, 0.014 mM, 0.005 mM, and 0.002 mM. The prepared solutions were each stored in a 0.5 ml sterilized dorft tube (Corning, USA). In addition, an equal volume of DMSO solvent was used as a blank control. With 10 concentration gradients, the plate was stored in vacuum at −20° C.
The tel-NTRK1-BaF3 and BaF3-LMNA-NTRK1 cell lines were cultured with RPMI 1640 (Corning, N.Y., USA)+10% fetal bovine serum (Gibico, Invitrogen, USA). After the cells were thawed, they were cultured for two generations to be tested.
(§13) Logarithmic growth phase cells (2000-2500 cells/well) were inoculated in a 12×8 96-well white opaque cell culture plate (Corning 3570, NY, USA) in a volume of 100 μL per well, and a drug was added to the cell plate (0.1 μL/well) at the final concentration of the compound of 10 μM, 3.3 μM, 1.1 μM, 0.37 μM, 0.12 IM, 0.04 μM, 0.014 IM, 0.005 μM, and 0.002 μM (0.4 uL of the drug solution was added to 400 ul of the cell homogenate, and then mixed uniformly, and the resulting mixture was added at 100 ul per well). The plate was incubated at 37° C. in a 5% CO2 incubator for 72 hours, and then 20 μL CellTiter-Glo cell proliferation fluorescence assay reagent was added. The plate was allowed to stand for 10 min, and read in the Envision Plate-Reader. […]
A corresponding […] value RLU of each well was obtained by reading in the Envision Plate-reader. […]
The biochemical activity of the compounds of the present invention was determined by the above experiment, and the measured GI50 values are shown in table 2: […]

BaF3-LMNA-NTRK1 = assay: Growth inhibition test, CellTiter-Glo, BaF3-LMNA-NTRK1 cells; format: cell-based; conditions: 72 hours incubation, read-out: Cell GI50 BaF3-LMNA-NTRK1
Protocol: as §10, §11
as §12, with “In addition, an equal volume of DMSO solvent was used as a blank control. With 10 concentration gradients, the plate was stored in vacuum at −20° C.” left out
as §13, with “added.” for “added. The plate was allowed to stand for 10 min, and read in the Envision Plate-Reader.”

Chain of TrkA (P04629 33-796, species assumed): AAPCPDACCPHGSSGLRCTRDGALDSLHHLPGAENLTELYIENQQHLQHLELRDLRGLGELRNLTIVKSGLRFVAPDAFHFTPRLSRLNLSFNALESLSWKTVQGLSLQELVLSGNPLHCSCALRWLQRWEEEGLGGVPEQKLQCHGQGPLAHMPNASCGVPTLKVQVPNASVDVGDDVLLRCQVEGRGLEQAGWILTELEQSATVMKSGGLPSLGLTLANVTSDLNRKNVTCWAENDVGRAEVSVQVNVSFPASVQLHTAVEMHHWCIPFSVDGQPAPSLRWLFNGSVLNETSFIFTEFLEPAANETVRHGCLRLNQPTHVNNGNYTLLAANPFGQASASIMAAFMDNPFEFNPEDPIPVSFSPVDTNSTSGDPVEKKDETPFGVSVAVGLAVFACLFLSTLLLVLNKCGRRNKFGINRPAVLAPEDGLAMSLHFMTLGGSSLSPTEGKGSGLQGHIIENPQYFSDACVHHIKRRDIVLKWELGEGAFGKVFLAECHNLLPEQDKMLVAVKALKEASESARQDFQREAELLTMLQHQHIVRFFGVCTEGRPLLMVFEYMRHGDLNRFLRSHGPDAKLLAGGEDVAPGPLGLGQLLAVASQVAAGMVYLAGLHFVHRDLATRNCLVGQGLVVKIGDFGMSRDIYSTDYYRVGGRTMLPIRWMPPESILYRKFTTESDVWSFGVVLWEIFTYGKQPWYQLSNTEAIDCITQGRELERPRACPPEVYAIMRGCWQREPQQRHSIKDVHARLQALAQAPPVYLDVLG

SMILES | IC50 (TrkA) [nM] | Remaining % (60 min) [1] [%] | Negative control Remaining % (60 min) [1] [%] | half-life at 1 μmol/L [1] [min] | microsomal CLint at 1 μmol/L [1] [µL/min/mg] | GI50 (BaF3-tel-NTRK1) [nM] | GI50 (BaF3-LMNA-NTRK1) [nM] | IC50 (TrkC) [nM] | IC50 (TrkB) [nM]
CC1Cc2ncc(F)cc2[C@H]2CCCN2c2ccn3ncc(c3n2)C(=O)NN1C1CC1 (single isomer, unassigned) [Example 3a, (1^3E,1^4E,2^2R,5R or S)-6-cyclopropyl-3^3-fluoro-5-methyl-6,7-diazepine-1(5,3)-pyrazolo(1,5-a]pyrimidine-3(3,2)-pyridine-2(1,2)-pyrrolidine cyclooctane-8-one] | 2.27 |  |  |  |  |  |  | 0.46 | 1.58
CC(C)N1CCc2ncc(F)cc2[C@H]2CCCN2c2ccn3ncc(c3n2)C(=O)N1 [Example 6, (R,1^3E,1^4E)-3^5-fluoro-6-isopropyl-6,7-diazepine-1(5,3)-pyrazolo[1,5-a]pyrimidine-3(3,2)-pyridine-2(1,2)-pyrrolidine cyclooctane-8-one] | 2.09 |  |  |  |  |  |  | 0.29 | 0.83
CCN1NC(=O)c2cnn3ccc(nc23)N2CCC[C@@H]2c2cc(F)cnc2CC1C (single isomer, unassigned) [Example 8b, (1^3E,1^4E,2^2R,5R or S)-3^5-fluoro-6-ethyl-5-methyl-6,7-diazepine-1(5,3)-pyrazolo[1,5-a]pyrimidine-3(3,2)-pyridine-2(1,2)-pyrrolidine cyclooctane-8-one] | 1.85 |  |  |  |  |  |  | 0.34 | 1.35
CCN1NC(=O)c2cnn3ccc(nc23)N2CCC[C@@H]2c2cc(F)cnc2CC1C (single isomer, unassigned) [Example 8a, (1^3E,1^4E,2^2R,5R or S)-3^5-fluoro-6-ethyl-5-methyl-6,7-diazepine-1(5,3)-pyrazolo[1,5-a]pyrimidine-3(3,2)-pyridine-2(1,2)-pyrrolidine cyclooctane-8-one] | 4.01 |  |  |  |  |  |  | 0.76 | 6.19
CC1Cc2ncc(F)cc2[C@H]2CCCN2c2ccn3ncc(c3n2)C(=O)NN1C (single isomer, unassigned) [Example 7a, (1^3E,1^4E,2^2R,5R or S)-3^5-fluoro-5,6-dimethyl-6,7-diazepine-1(5,3)-pyrazolo[1,5-a]pyrimidine-3(3,2)-pyridine-2(1,2)-pyrrolidine cyclooctane-8-one] | 3.2 |  |  |  |  |  |  | 0.58 | 4.04
CN1CCc2ncc(F)cc2[C@H]2CCCN2c2ccn3ncc(c3n2)C(=O)N1 [Example 4, (R,1^3E,1^4E)-3^5-fluoro-6-methyl-6,7-diazepine-1(5,3)-pyrazolo[1,5-a]pyrimidine-3(3,2)-azabenzene-2(1,2)-pyrrolidine cyclooctane-8-one] | 12.6 | 88.39 | 108.0 | 217 | 6.4 |  |  |  | 
CCN1CCc2ncc(F)cc2[C@H]2CCCN2c2ccn3ncc(c3n2)C(=O)N1 [Example 5, (R,1^3E,1^4E)-6-ethyl-3^3-fluoro-6,7-diazepine-1(5,3)-pyrazolo[1,5-a]pyrimidine-3(3,2)-azabenzene-2(1,2)-pyrrolidine cyclooctane-8-one] | 7.92 |  |  |  |  |  |  |  | 
CC1Cc2ncc(F)cc2[C@H]2CCCN2c2ccn3ncc(c3n2)C(=O)NN1C1CC1 (stereo partly drawn) [Example 2, (1^3E,1^4E,2^2R)-6-cyclopropylamino-3^5-fluoro-5-methyl-6,7-diazepine-1(5,3)-pyrazolo[1,5-a]pyrimidine-3(3,2)-azabenzene-2(1,2)-pyrrolidine cyclooctane-8-one] | 3.81 |  |  |  |  | 18 |  |  | 
CC1Cc2ncc(F)cc2[C@H]2CCCN2c2ccn3ncc(c3n2)C(=O)NN1C (single isomer, unassigned) [Example 7b, (1^3E,1^4E,2^2R,5R or S)-3^5-fluoro-5,6-dimethyl-6,7-diazepine-1(5,3)-pyrazolo[1,5-a]pyrimidine-3(3,2)-pyridine-2(1,2)-pyrrolidine cyclooctane-8-one] | 2.62 |  |  |  |  |  |  | 0.19 | 0.71
CC(C)CN1CCc2ncc(F)cc2[C@H]2CCCN2c2ccn3ncc(c3n2)C(=O)N1 [Example 9, (R,1^3E,1^4E)-3^5-fluoro-6-isobutyl-6,7-diazepine-1(5,3)-pyrazolo[1,5-a]pyrimidine-3(3,2)-pyridine-2(1,2)-pyrrolidine cyclooctane-8-one] | 2.36 |  |  |  |  |  |  | 0.32 | 2.16
CC1Cc2ncc(F)cc2[C@H]2CCCN2c2ccn3ncc(c3n2)C(=O)NN1C1CC1 (single isomer, unassigned) [Example 3b, (1^3E,1^4E,2^2R,5R or S)-6-cyclopropyl-3^5-fluoro-5-methyl-6,7-diazepine-1(5,3)-pyrazolo(1,5-a]pyrimidine-3(3,2)-pyridine-2(1,2)-pyrrolidine cyclooctane-8-one] | 2.16 |  |  |  |  |  |  | 0.38 | 1.13

Now from value to compound, other results behind:

IC50 (TrkA) [nM] | Remaining % (60 min) [1] [%] | Negative control Remaining % (60 min) [1] [%] | half-life at 1 μmol/L [1] [min] | microsomal CLint at 1 μmol/L [1] [µL/min/mg] | GI50 (BaF3-tel-NTRK1) [nM] | GI50 (BaF3-LMNA-NTRK1) [nM] | SMILES | IC50 (TrkC) [nM] | IC50 (TrkB) [nM]
 | 47.78 | 95.9 | 59.2 | 23.4 | 24.6 | 35.7 | O=C(Nc1cnn2ccc(N3CCC[C@@H]3c3cc(F)ccc3F)nc12)N1CC[C@H](O)C1 [LOXO-101, reference compound] |  | 
 | 6.70 | 102 | 15.3 | 90.6 |  |  | C[C@@H]1CCc2ncc(F)cc2[C@H]2CCCN2c2ccn3ncc(c3n2)C(=O)N1 [LOXO-195, reference compound] |  | 
